Entries after “also recorded” stand apart in the source; their conditions may differ.
Assays:
[1] = tested on: basolateral Na/K ATPase in LLCPK1 cells; experiment: Basolateral Na/K ATPase expression by surface biotinylation and Western blot; format: cell-based; details: for expression of basolateral Na/K ATPase: LLCPK1 cells, Ang IV 10^−9 M×20 hours, siRNA transfection
Method: Representative autoradiograph of Na-K ATPase as detected by Western blot represented above bar-graph. Upper panel: representative autoradiograph of Na-K ATPase as detected by Western blot. Overexpression of APN( APN Over Exp) n=3 (except Ang IV, n=6) * P<0.05 compared to control paired t-test) Complementary measurements of Na/K ATPase expression by confocal microscopy-FIG. 5).
(§1) Na/K ATPase expression and activity are measured by basolateral surface biotinylation and oubain-inhibitable ATPase activity, respectively, in cells cultured in Transwell plates.
In complementary experiments, basolateral Na/K ATPase expression in cultured cells is measured both by biotinylation and confocal microscopy. Biotinylation technique to assess the surface Na/K ATPase protein has already been established in our laboratory. Biotinylation is performed as using NHS-S-S-biotin (Pierce). Labeling for 20 min at the basolateral domain in cells grown in transwells at 4° C. to stop endocytosis and internalization of antigen. Biotinylated antigens are immunoprecipitated with streptavidin agarose and released by incubation in 10 mM dithiothreitol, reconstituted in Laemmli buffer, subjected to SDS-PAGE and then probed with Anti alphal Na/K ATPase mAb (Upstate/ Millipore, Billerica, Mass.). For analysis, surface Na/K ATPase is compared to total protein as determined by immunoblotting in solubilized cell extract and with the amount of Na/K ATPase not removed by avidin precipitation method (intracellular pool).

[2] = tested on: Na/K ATPase in LLCPK1 cells; experiment: Na/K ATPase distribution by confocal immunofluorescence; format: cell-based; details: for APN induced endocytosis of Na/K ATPase: LLCPK1 cells with APN overexpression plus siRNA; for Na/K ATPase distribution (endocytosis, membrane abundance): LLCPK1 cells, Ang IV 10 nM×12 hours, oubain 50 nM×12 hours (control)
From the text: FIGS. 6A-6G are scans of photographs showing Na/K ATPase distribution in LLCPK1 cells by immuno fluorescence (complementary to FIG. 5): Confocal images from z-stacked permeabilized LLCPK1 cells probed for Na/K ATPase using monoclonal Ab against the alpha subunit of Na/K ATPase (1:100). FIG. 6A: Control. […] All images were generated with a Zeiss LSM 410 laser scanning confocal microscope at 100×. All settings were the same for all images obtained. Images are representative of experiments repeated twice. Arrows: endocytosis of Na/K ATPase.
Confocal microscopy: Confocal fluorescence microscopy is performed using a Zeiss LSM 510 confocal microscope and Anti alphal Na/K ATPase mAb (Upstate/ Millipore, Billerica, Mass.) to further confirm the internalization of surface Na/K ATPase.

LLC-PK cells = experiment: Quantitative immunohistochemistry for APN and Ang IV after siRNA; format: cell-based; details: siRNA 2 μg per well, 48 hours, Q-IHC, P<0.05 vs control
Method: The top panel is a scan of photographs showing quantitative immunohistochemistry (QIH-C) for APN and Ang IV. Cells were grown in 4 well chamber plates. For siRNA, each well was incubated (37° C. for 5 hours) with 1 ml media containing 4 μl of Enhancer R, 4 μl of RNAi (2 μg), 8 μl of Transmessenger Reagent and […] of optimem followed by 0.5 ml of optimem+20% FBS for 48 hours. The cells were fixed with 3.7% formaldehyde and stained using DakoCytomation staining kit. The amount of DAB staining was measured using Q-IHC. N=10 fields analyzed/transfection×2 transfections P<0.05 vs control. Upper panel: representative fields. Positive staining-arrows.
APN abundance regulates Ang IV: To initially address the hypothesis that the mechanism for APN-mediated regulation of Na/K ATPase is via Ang IV signaling, the effect of suppression of endogenous APN expression with siRNA on Ang IV abundance was measured in LLC-PK cells (FIG. 3A-3B). siRNA to APN decreased both APN and Ang IV expression, indicating the Ang IV level was regulated by APN.
For quantitative immunohistochemistry, a standard three-stage indirect immunoperoxidase technique is used on formalin fixed kidney sections. Images are acquired using a 4.9 million pixel digital scanning 24-bit RGB camera, saved in TIFF format, and used for subsequent analysis. […]

[3] = tested on: Dahl SS/Jr rats on 8% NaCl; experiment: Radiotelemetric blood pressure monitoring during Ang IV infusion; format: in vivo, rat; details: 10 day Ang IV infusion 7 pmol/minute, n=4, P<0.05
Method: Radiotelemetric blood pressure monitoring with 10 day Ang IV (7 pmol/minute) infusion (===). Systolic BP (peak) 157-188 mmHg. BP for each rat normalized to day 9, each BP averaged during 12 hour dark cycle (rats maintained 12 hours light/dark cycle). Day 0—surgical implantation of pressure transducer and infusion pump. n =4,- - - less than days 6-9 (initial infusion of Ang IV) and 16-24 (P<0.05).
Continuous arterial blood pressure monitoring is by radiotelemetry in freely moving instrumented rats. An implantable osmotic pump is used for infusion experiments.
First, for tail-cuff measurements, the rats must be restrained which falsely elevates the blood pressure due to adrenergic storm. With radiotelemetry, the rats are unrestrained and blood pressures are measured continuously in freely moving rats in large cages. […] Third, with tail cuff, blood pressures are measured once or at most twice a day, whereas, with radiotelemetry, blood pressures are measured continuously, allowing assessment of diurnal patterns and the time-integral of overall blood pressure burden. […]
Survival Surgery and Radiotelemetry Measurement of Central Aortic Pressure. […] Once the transmitter is activated by a special magnet, measurements of pulsatile central aortic blood pressure is recorded continuously by placing an individual receiver under each rat's cage. […]

[4] = tested on: Na/K ATPase in LLCPK1 cells; experiment: Na/K ATPase activity (oubain-inhibitable ATPase) in cultured cells; format: cell-based; details: FIG. 7, n=1 (triplicate)
Method: FIG. 7 is a graph showing Na/K ATPase activity parallels changes in basolateral Na/K ATPase expression in LLCPK1 cells treated with siRNA to APN and AT4; Ang IV and oubain (control). n=1 (triplicate). siRNA to APN (siRNA-APN); siRNA to AT4 (siRNA-AT4); APN over-expression (APN o/e).
as §1
Measurement of Na/KATPase expression and activity: Na/K ATPase activity in membranes isolated from proximal tubule fractions and membranes from cultured/transfected cell lines is measured as the rate of inorganic phosphate, using coloring reagent (10% ammonium molybdate in 10 N sulfuric acid +ferrous sulfate) released in the presence or absence of oubain.

HK-2 cells = details: cited from earlier work
rat proximal tubules = details: fresh suspensions of control or nystatin-stimulated rat proximal tubules; cited from earlier work
rat = details: infusion into the renal artery, cited from earlier work
[5] = tested on: primary cultures of rat renal epithelial cells; details: cited from earlier work
Dahl SR rats = experiment: Infusion of Anpep inhibitor, salt-sensitivity by radiotelemetric blood pressure; format: in vivo, rat; details: preliminary experiments
Method: For these experiments, continuous radiotelemetric blood pressure monitoring is performed in rats instrumented with transducers and osmotic mini-pumps.

Compound: 5′-AACCTGAGTCAGGACGTAAT-3′; SEQ ID NO: 4 [siRNA to AT4 receptor]
- regulation (reduction) of Na/K ATPase expression by Ang IV ([1]; LLCPK1 cells treated with siRNA and Ang IV): partially abolishes; also recorded: abrogated
- expression of basolateral Na/K ATPase [1]: increase
- APN induced endocytosis of Na/K ATPase [2]: partially blocks
- APN induced endocytosis of Na/K ATPase ([2]; listed as siRNA to the AT4 receptor): abrogrates

Compound: 5′-UCGGGCACAGAUCAUUAUUd(TT)-3′; SEQ ID NO: 3 [siRNA to APN]
- expression of basolateral Na/K ATPase [1]: increased
- APN expression (LLC-PK cells): reduces; also recorded: decreased
- Ang IV expression (LLC-PK cells): reduces; also recorded: decreased

Compound: CC[C@H](C)[C@H](NC(=O)[C@H](Cc1ccc(O)cc1)NC(=O)[C@@H](N)C(C)C)C(=O)N[C@@H](Cc1cnc[nH]1)C(=O)N1CCC[C@H]1C(=O)N[C@@H](Cc1ccccc1)C(=O)O [Ang IV, V-Y-I-H-P-F (SEQ ID NO: 2)]
- blood pressure (BP) [3]: reduces blood pressure; also recorded: lowers arterial blood pressure
- expression of basolateral Na/K ATPase [1]: tend to reduce; also recorded: reduced
- activity of basolateral Na/K ATPase [4]: reduce
- Na uptake (reflecting decreased flux) (HK-2 cells): increases Na uptake
- Na/K ATPase distribution (endocytosis, membrane abundance) [2]: endocytosis and reduced membrane abundance of Na/K ATPase
- transcellular Na+ transport (proximal tubule O2 consumption rates) (rat proximal tubules): decreases
- cortical blood flow (rat; rat): increases cortical blood flow
- Na excretion (rat): increases urinary Na excretion; also recorded: promotes Na excretion
- blood pressure (rat): lowers blood pressure
- transcellular Na transport [5]: dose-dependent decrease

Compound: CC(C)C[C@H](NC(=O)C(O)[C@H](N)Cc1ccccc1)C(=O)O (stereo partly drawn) [bestatin, (2S,3R)-3-amino-2-hydroxy-4-phenylbutanoyl-L-leucine]
- salt-sensitivity (Dahl SR rats): induced sensitivity

Compound: C[C@@H]1O[C@@H](O[C@H]2C[C@@H](O)[C@]3(CO)[C@H]4[C@H](O)C[C@]5(C)[C@@H](C6=CC(=O)OC6)CC[C@]5(O)[C@@H]4CC[C@]3(O)C2)[C@H](O)[C@H](O)[C@H]1O [oubain]
- Na/K ATPase distribution (endocytosis, membrane abundance) [2]: endocytosis

Source: patent publication US20080026409A1, “SALT-SENSITIVE HYPERTENSION” (THE BOARD OF TRUSTEES OF THE UNIVERSITY OF ILLINOIS, priority 2006, published 2008)
